“And” between values parts separate entries of the source, which are not always exact repeats. Equal values may be shown once.

The target of assay [1] is T1, human MMP-2 (amino acids 1-660) (Homo sapiens, UniProt P08253).
T1 construct: human MMP-2 (amino acids 1-660); made in house
T1 sequence (P08253 110-660): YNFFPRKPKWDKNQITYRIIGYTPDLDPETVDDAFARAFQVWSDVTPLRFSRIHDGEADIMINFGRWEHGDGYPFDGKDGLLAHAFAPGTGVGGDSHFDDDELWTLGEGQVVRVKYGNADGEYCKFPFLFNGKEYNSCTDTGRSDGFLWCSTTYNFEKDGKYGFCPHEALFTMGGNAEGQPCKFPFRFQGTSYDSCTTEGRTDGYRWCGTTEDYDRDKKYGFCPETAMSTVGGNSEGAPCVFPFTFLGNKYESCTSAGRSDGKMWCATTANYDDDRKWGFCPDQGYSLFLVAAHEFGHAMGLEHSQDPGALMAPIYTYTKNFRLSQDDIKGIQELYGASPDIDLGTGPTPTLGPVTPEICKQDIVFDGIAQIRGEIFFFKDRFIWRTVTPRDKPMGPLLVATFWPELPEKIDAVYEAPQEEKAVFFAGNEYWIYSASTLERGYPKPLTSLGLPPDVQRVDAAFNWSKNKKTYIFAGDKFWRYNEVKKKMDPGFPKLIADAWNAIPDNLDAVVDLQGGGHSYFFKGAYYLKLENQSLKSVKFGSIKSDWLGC
As to the kind of experiment: MMP dose response assay for determining IC50, MMP-2. Type of assay: biochemical. The settings on record: for IC50: recombinant enzyme, fluorescent-quench substrate 100 nM, read-out: MMP-2; for inhibition at 10 µM: read-out: MMP-2 % inhibition at 10 μM. Here is the method:
(§1) MMP Dose Response Assay for Determining IC50
(§2) The following method was used for determining IC50 values of different inhibitor compounds against multiple MMP enzymes. Frozen stocks of recombinantly produced MMPs were prepared in assay buffer (50 mM HEPES pH 7.4, 10 mM CaCl2, 0.05% Brij-35). […] Enzyme concentrations in the assay were determined empirically and set such that proteolytic activity was maintained in a linear range over the time-course of the experiment. […] Each concentration for each test compound was tested in triplicate. MMP enzymes were equilibrated with compounds for 1 hour at room temperature, then a fluorescent-quench substrate (Acetyl-Cys(Eu)-Pro-Leu-Gly-Leu-Lys-(QSY7)-Ala-Arg-amide) was added to a final concentration of 100 nM. […] Data was analyzed by first calculating average background value from wells that contained only substrate, and this value was subtracted from the entire plate. The 100%, or maximum value, was determined by averaging control wells that contained enzyme, substrate and DMSO. For each well, the percent of control was calculated by dividing the well value by the average DMSO value obtained above.

Assay [2] deals with T2, human MMP-9 (amino acids 107-446) (Homo sapiens, UniProt P14780).
T2 construct: human MMP-9 (amino acids 107-446); made in house
As to the kind of experiment: MMP dose response assay for determining IC50, MMP-9. It counts as biochemical. The conditions noted are these: for IC50: recombinant enzyme, fluorescent-quench substrate 100 nM, read-out: MMP-9; for inhibition at 10 µM: read-out: MMP-9 % inhibition at 10 μM. The method, then: as §1, §2

T2 sequence (P14780 107-446): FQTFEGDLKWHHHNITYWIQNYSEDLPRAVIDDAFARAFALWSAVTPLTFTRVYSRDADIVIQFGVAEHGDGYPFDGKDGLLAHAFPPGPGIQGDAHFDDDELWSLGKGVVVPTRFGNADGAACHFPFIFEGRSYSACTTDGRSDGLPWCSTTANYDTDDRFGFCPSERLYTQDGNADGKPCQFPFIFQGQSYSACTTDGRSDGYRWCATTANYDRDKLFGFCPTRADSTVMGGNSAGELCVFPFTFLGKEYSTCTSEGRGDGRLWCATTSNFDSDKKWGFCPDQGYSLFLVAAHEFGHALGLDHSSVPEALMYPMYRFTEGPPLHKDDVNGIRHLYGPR

In the case of `CC(C)CN(O)C(=O)[C@H](CN(c1ccc(Oc2ccc(C(F)(F)F)cc2)cc1)S(C)(=O)=O)N1CCOCC1` [Example 5, N-Hydroxy,N-(2-methylpropyl)(2S)-2-(morpholin-4-yl)-3-{N-[4-(4-trifluoromethylphenoxy)phenyl],N-methanesulfonylamino}propionamide], the figures for the IC50 in assay [1] and in assay [2] were 261 nM and 87.9 nM, respectively.
Turning to `Cc1ccc(Oc2ccc(N(C[C@@H](O)C(=O)NO)S(C)(=O)=O)cc2)cc1` [Example 7, N-Hydroxy (2R)-2-hydroxy-3-{N-[4-(4-methylphenoxy)phenyl],N-methanesulfonylamino}propionamide], the IC50 in assay [1] was 81.7 nM and 52 nM; in assay [2], 20.6 nM and 3.13 nM.
For the compound `Cc1ccc(Oc2ccc(N(C[C@H](O)C(=O)NO)S(C)(=O)=O)cc2)cc1` [Example 8, N-Hydroxy (2S)-2-hydroxy-3-{N-[4-(4-methylphenoxy)phenyl],N-methanesulfonylamino}propionamide], the IC50 was 88.5 nM and 67.8 nM and 98.2 nM and 65 nM and 51.9 nM and 71.5 nM in assay [1]; 10.5 nM and 11.1 nM and 10.1 nM and 3.37 nM and 4.69 nM and 7.57 nM in assay [2].
By inhibition is commonly meant the percentage by which the read-out fell short of the control. Regarding `CS(=O)(=O)N(C[C@@H](O)C(=O)NO)c1ccc(-c2ccccc2)cc1` [Example 9, N-Hydroxy (2R)-2-hydroxy-3-[N-(4-phenyl)phenyl,N-methanesulfonylamino]propionamide], the inhibition at 10 µM in assay [1] amounted to 83.6%; in assay [2], 78.7%.
Taken in the same sequence, the figures for `CS(=O)(=O)N(C[C@H](O)C(=O)NO)c1ccc(-c2ccccc2)cc1` [Example 10, N-Hydroxy (2S)-2-hydroxy-3-[N-(4-phenyl)phenyl,N-methanesulfonylamino]propionamide] were 87% and 79%.
Turning to `COc1ccc(N[C@@H](CN(c2ccc(Oc3ccc(C)cc3)cc2)S(C)(=O)=O)C(=O)NO)cc1` [Example 48, N-Hydroxy (2S)-2-(4-methoxyphenyl)amino-3-{N-[4-(4-methylphenoxy)phenyl],N-methanesulfonylamino}propionamide], the IC50 in assay [1] was 18.5 nM; in assay [2], 0.69 nM.
As to `Cc1ccc(Sc2ccc(N(C[C@H](O)C(=O)NO)S(C)(=O)=O)cc2)cc1` [Example 49, N-Hydroxy (2S)-2-hydroxy-3-{N-[4-(4-methylthiophenoxy)phenyl],N-methanesulfonylamino}propionamide], the IC50 in assay [1] is 274 nM and 321 nM; in assay [2], 62.8 nM and 44.5 nM.
As for `Cc1ccc(Oc2ccc(N(C[C@H](Nc3ccc(OC(F)(F)F)cc3)C(=O)NO)S(C)(=O)=O)cc2)cc1` [Example 50, N-Hydroxy (2S)-3-{N-[4-(4-methylphenoxy)phenyl],N-methanesulfonylamino}-2-(4-trifluoromethoxyphenyl)aminopropionamide], the IC50 in assay [1] was 877 nM; in assay [2] it was 73.6 nM.
For `COc1cccc(N[C@@H](CN(c2ccc(Oc3ccc(C)cc3)cc2)S(C)(=O)=O)C(=O)NO)c1` [Example 51, N-Hydroxy (2S)-2-(3-methoxyphenyl)amino-3-{N-[4-(4-methylphenoxy)phenyl],N-methanesulfonylamino}propionamide], in that order: 26.8 nM and 0.62 nM.
On to `Cc1ccc(Oc2ccc(N(C[C@H](Nc3cccc(OC(F)(F)F)c3)C(=O)NO)S(C)(=O)=O)cc2)cc1` [Example 52, N-Hydroxy (2S)-3-{N-[4-(4-methylphenoxy)phenyl],N-methanesulfonylamino}-2-(3-trifluoromethoxyphenyl)aminopropionamide], for which the IC50 in assay [1] is 1080 nM; in assay [2], 165 nM.
`CS(=O)(=O)N(C[C@H](O)C(=O)NO)c1ccc(Oc2ccc(C(F)(F)F)cn2)cc1` [Example 53, N-Hydroxy (2S)-2-hydroxy-3-{N-{4-[(5-trifluoromethylpyridin-2-yl)oxy]phenyl},N-methanesulfonylamino}propionamide]: the IC50 in assay [2] was determined as 472 nM.
Take `CS(=O)(=O)N(C[C@H](O)C(=O)NO)c1ccc(Oc2ccc(C(F)(F)F)cc2)cc1` [Example 54, N-Hydroxy (2S)-2-hydroxy-3-{N-[4-(4-trifluoromethylphenoxy)phenyl],N-methanesulfonylamino}propionamide]: the IC50 in assay [1] was 175 nM and 102 nM; in assay [2], 17.2 nM and 10.7 nM.

These data come from patent US20080085893A1, “MATRIX METALLOPROTEASE INHIBITORS” (priority 2006, published 2008).
